Measurements as given in patent publication US20110052730A1, “Leaves Extract of Panax sp., a Process of Making the Same and Uses Thereof” (UNIGEN, INC., priority 2008, published 2011).

Assay: Physicochemical properties of ginsenosides (soluble in)

SMILES	Soluble in
C=C(CCC=C(C)C)C1CCC2(C)C1[C@H](O)CC1[C@@]3(C)CCC(OC4OC(CO)C(O)C(O)C4OC4OC(CO)C(O)C(O)C4O)C(C)(C)C3CC[C@]12C (some centres unmarked) [Rk1]	Alcohol
CC(C)=CC/C=C(/C)C1CCC2(C)C1[C@H](O)CC1[C@@]3(C)CCC(OC4OC(CO)C(O)C(O)C4OC4OC(CO)C(O)C(O)C4O)C(C)(C)C3CC[C@]12C (some centres unmarked) [Rg5]	Alcohol
